Laboratory results published in patent US20070049564A1 (Wyeth, priority 2005, published 2007).
Converted amounts (≈) assume the structure as drawn. Read-outs that look alike come from different tables or passages of the source.

Assays:
Staph. aureus Smith [1] = assay: In vivo activity (oral, iv; ED50) against Staph. aureus Smith in mice
Procedure: Representative examples of compounds of Formula I were tested for the oral efficacy using S. aureus Smith in mice.

E. coli #311 = assay: In vivo activity (oral, iv; ED50) against E. coli in mice; conditions: for ED50: Escherichia coli
From the text: . […] Smith and E. Coli #311 in mammals.
Results of the tests (MIC, oral and IV) are list in Table 7.

E. coli [2] = assay: In vitro activity (MIC) against E. coli (Table 7); type: cell-based
E. coli [3] = assay: Range of MIC for E. coli strains; conditions: for MIC: Escherichia coli
Streptococcus spp. = assay: In vitro activity (MIC), strain groups; conditions: Streptococcus spp.
Procedure: (§1) Antimicrobial susceptibility testing. The in vitro activities of the antibiotics are determined by the broth microdilution method as recommended by the National Committee for Clinical Laboratory Standards (NCCLS) (1). Mueller-Hinton II broth (MHBII)(BBL Cockeysville, Md.) is the medium employed in the testing procedures. Microtiter plates containing serial dilutions of each antimicrobial agent are inoculated with each organism to yield the appropriate density (10^5 CFU/ml) in a 100 μl final volume. The plates are incubated for 18-22 hours at 35° C. in ambient air.
(§2) Presented in Tables I-XIII are representative compounds of Formula I which were evaluated against a panel of 40 selected gram-positive and gram-negative bacteria strains by pre-incubation in water, mouse serum or human serum. Representative compounds were first incubated in mouse serum for an hour prior to the in vitro testing against a panel of selected gram-positive and gram-negative bacteria strains. All compounds were also pre-incubated in water for an hour prior to testing as control. Representative compounds of Formula I were incubated in human serum prior to MIC determination.

Staph. aureus Smith [4] = assay: In vitro activity (MIC) against Staph. aureus Smith; type: cell-based; conditions: for MIC: Staphylococcus aureus
[5] = test system: E. coli, tet (M,S,O) Tet (M); assay: In vitro activity (MIC), strain groups; conditions: E. coli, tet (M,S,O) Tet (M)
Procedure: as §1, §2

Staph. = assay: Range of MIC for Staph. strains, including MRSA; conditions: for MIC: Staphylococcus aureus
[6] = test system: E. coli, tet(A-D), efflux; assay: In vitro activity (MIC), strain groups; conditions: E. coli, tet(A-D), efflux; Mouse serum
Procedure: as §1
(§3) Representative compounds were first incubated in mouse serum for an hour prior to the in vitro testing against a panel of selected gram-positive and gram-negative bacteria strains. All compounds were also pre-incubated in water for an hour prior to testing as control. Representative compounds of Formula I were incubated in human serum prior to MIC determination.

Enterococcus spp. = assay: In vitro activity (MIC), strain groups; conditions: Enterococcus spp.
Procedure: as §1, §2

S. aureus, tet (M) = assay: In vitro activity (MIC), strain groups
Procedure: as §1, §3

[7] = Staphylococcus aureus, in Mus musculus, iv, read-out: ED50 SIV (Staph aureus Smith)
[8] = Staphylococcus aureus, in Mus musculus, po, read-out: ED50 SOD (Staph aureus Smith)
[9] = Staphylococcus aureus, in Mus musculus, po, read-out: ED50 Staph Smith SOD
[10] = iv, read-out: ED50 Staph Smith SIV
[11] = single intravenous dose (SIV), read-out: ED50 E. coli #311 SIV
[12] = single oral dose (SOD), read-out: ED50 E. coli #311 SOD
[13] = 20 h, read-out: Range of MIC, E. coli (Mouse Serum)
[14] = read-out: Minimum inhibitory concentration (MIC), E. coli (Human Serum)
[15] = read-out: Minimum inhibitory concentration (MIC), E. coli (water)
[16] = read-out: Range of MIC, E. coli (Water)
[17] = MRSA, read-out: Range of MIC, Staph (Mouse Serum)
[18] = MRSA, read-out: Range of MIC, Staph (Water)
[19] = read-out: Minimum inhibitory concentration (MIC), Staph (Human Serum)
[20] = read-out: Minimum inhibitory concentration (MIC), Staph (Water)
[21] = read-out: Minimum inhibitory concentration (MIC), E. coli (mouse serum)
[22] = MRSA, read-out: Minimum inhibitory concentration (MIC), Staph. (mouse serum)
[23] = MRSA, read-out: Minimum inhibitory concentration (MIC), Staph. (water)
[24] = read-out: Range of MIC, E. coli (mouse serum)
[25] = MRSA, read-out: Range of MIC, Staph. (mouse serum)
[26] = MRSA, read-out: Range of MIC, Staph. (water)

## [({[(5aR,6aS,7S,10aS)-9-(aminocarbonyl)-4,7-bis(dimethylamino)-1,8,10a,11-tetrahydroxy-10,12-dioxo-5,5a,6,6a,7,10,10a,12-octahydrotetracen-2-yl]amino}carbonyl)oxy]methyl 4-tert-butylbenzoate [Example 87]
Staph. aureus Smith [1]; single intravenous dose, mice, Table 6
  ED50 SIV (Staph aureus Smith): 0.83 mg/kg
Staph. aureus Smith [1]; single oral dose, mice, Table 6
  ED50 SOD (Staph aureus Smith): 12.82 mg/kg
E. coli #311; single intravenous dose, mice, Table 7
  ED50 SIV (E. coli): 3.6 mg/kg
E. coli #311; single oral dose, mice, Table 7
  ED50 SOD (E. coli): 60.4 mg/kg
E. coli [2]
  MIC (E. coli): >64 µg/mL
E. coli [3]; Water, Table 1
  Range of MIC, E. coli (Water): >64 µg/mL
Streptococcus spp.; Human serum
  In vitro activity (MIC): 1-2
Streptococcus spp.; water
  In vitro activity (MIC): 0.5-2
Staph. aureus Smith [4]; Table 6
  MIC (Staph aureus Smith): 32 µg/mL
[5]; Human serum
  In vitro activity (MIC): >64
[5]; Mouse serum
  In vitro activity (MIC): 0.25-0.5
[5]; water
  In vitro activity (MIC): >64
Staph.; Mouse Serum, including MRSA, Table 1
  Range of MIC, Staph (Mouse Serum): 32 to 64 µg/mL
Staph.; Water, including MRSA, Table 1
  Range of MIC, Staph (Water): >64 µg/mL
[6]
  In vitro activity (MIC): 0.25-0.5
Enterococcus spp.; Human serum
  In vitro activity (MIC): 0.25-8
Enterococcus spp.; Mouse serum
  In vitro activity (MIC): 0.12-0.5
Enterococcus spp.; water
  In vitro activity (MIC): 0.25-32
S. aureus, tet (M); Human serum
  In vitro activity (MIC): 16
S. aureus, tet (M); Mouse serum
  In vitro activity (MIC): 0.5
S. aureus, tet (M); water
  In vitro activity (MIC): 64

## CN(C)c1cc(NC(=O)CN(C(=O)OCOC(=O)CC2CCCC2)C(C)(C)C)c(O)c2c1C[C@H]1C[C@H]3[C@H](N(C)C)C(O)=C(C(N)=O)C(=O)[C@@]3(O)C(O)=C1C2=O [Example 54, ({[(2-{[(5aR,6aS,7S,10aS)-9-(aminocarbonyl)-4,7-bis(dimethylamino)-1,8,10a,11-tetrahydroxy-10,12-dioxo-5,5a,6,6a,7,10,10a,12-octahydrotetracen-2-yl]amino}-2-oxoethyl)(tert-butyl)amino]carbonyl}oxy)methyl cyclopentylacetate]
Staph. aureus Smith [1]; [7]
  ED50: 0.83 mg/kg
Staph. aureus Smith [1]; [8]
  ED50: 8.4 mg/kg
Staph. aureus Smith [1]; [9]
  ED50: > 16 mg/kg
Staph. aureus Smith [1]; [10]
  ED50: 1.17 mg/kg
E. coli #311; [11]
  ED50: 3.72 mg/kg
E. coli #311; single intravenous dose, mice, Table 7, read-out: ED50 SIV (E. coli)
  ED50: 2.16 mg/kg
E. coli #311; [12]
  ED50: > 32 mg/kg
E. coli #311; single oral dose, mice, Table 7, read-out: ED50 SOD (E. coli)
  ED50: 29.2 mg/kg
E. coli [2]; Escherichia coli
  MIC: > 64 µg/mL
E. coli [3]; [13]
  MIC: 0.5 to 1 µg/mL (≈ 0.649 to 1.3 µM)
E. coli [3]; [14]
  MIC: 16 to 32 µg/mL (≈ 20.8 to 41.6 µM)
E. coli [3]; [15]
  MIC: > 64 µg/mL
E. coli [3]; [16]
  MIC: > 64 µg/mL
Staph. aureus Smith [4]; Table 6
  MIC: 0.5 µg/mL (≈ 0.649 µM)
Staph.; [17]
  MIC: 0.5 to 2 µg/mL (≈ 0.649 to 2.6 µM)
Staph.; [18]
  MIC: 1 to 4 µg/mL (≈ 1.3 to 5.2 µM)
Staph.; [19]
  MIC: 0.5 to 2 µg/mL (≈ 0.649 to 2.6 µM)
Staph.; [20]
  MIC: 1 to 4 µg/mL (≈ 1.3 to 5.2 µM)

## CCCCN(CC(=O)Nc1cc(N(C)C)c2c(c1O)C(=O)C1=C(O)[C@]3(O)C(=O)C(C(N)=O)=C(O)[C@@H](N(C)C)[C@@H]3C[C@@H]1C2)C(=O)OCOC(=O)CC1CCCC1 [Example 38, ({[(2-{[(5aR,6aS,7S,10aS)-9-(aminocarbonyl)-4,7-bis(dimethylamino)-1,8,10a,11-tetrahydroxy-10,12-dioxo-5,5a,6,6a,7,10,10a,12-octahydrotetracen-2-yl]amino}-2-oxoethyl)(butyl)amino]carbonyl}oxy)methyl cyclopentylacetate]
Staph. aureus Smith [1]; [7]
  ED50: 0.6 mg/kg
Staph. aureus Smith [1]; [8]
  ED50: 5.3 mg/kg
Staph. aureus Smith [1]; [9]
  ED50: 5.3 mg/kg
Staph. aureus Smith [1]; [10]
  ED50: 0.6 mg/kg
E. coli [3]; [13]
  MIC: 0.5 to 4 µg/mL (≈ 0.649 to 5.2 µM)
E. coli [3]; [21]
  MIC: 0.5 to 4 µg/mL (≈ 0.649 to 5.2 µM)
Staph. aureus Smith [4]; Table 8
  MIC: 2 µg/mL (≈ 2.6 µM)
Staph.; [22]
  MIC: 0.5 to 2 µg/mL (≈ 0.649 to 2.6 µM)
Staph.; [23]
  MIC: 1 to 8 µg/mL (≈ 1.3 to 10.4 µM)
Staph.; [17]
  MIC: 0.5 to 2 µg/mL (≈ 0.649 to 2.6 µM)
Staph.; [18]
  MIC: 1 to 8 µg/mL (≈ 1.3 to 10.4 µM)

## CCCCN(CC(=O)Nc1cc(N(C)C)c2c(c1O)C(=O)C1=C(O)[C@]3(O)C(=O)C(C(N)=O)=C(O)[C@@H](N(C)C)[C@@H]3C[C@@H]1C2)C(=O)OCOC(=O)CC(C)(C)C [Example 36, ({[(2-{[(5aR,6aS,7S,10aS)-9-(aminocarbonyl)-4,7-bis(dimethylamino)-1,8,10a,11-tetrahydroxy-10,12-dioxo-5,5a,6,6a,7,10,10a,12-octahydrotetracen-2-yl]amino}-2-oxoethyl)(butyl)amino]carbonyl}oxy)methyl 3,3-dimethylbutanoate]
Staph. aureus Smith [1]; [7]
  ED50: 0.84 mg/kg
Staph. aureus Smith [1]; [8]
  ED50: 5.15 mg/kg
Staph. aureus Smith [1]; [9]
  ED50: 5.15 mg/kg
Staph. aureus Smith [1]; [10]
  ED50: 0.84 mg/kg
E. coli [3]; [13]
  MIC: 2 to 8 µg/mL (≈ 2.64 to 10.6 µM)
E. coli [3]; [21]
  MIC: 2 to 8 µg/mL (≈ 2.64 to 10.6 µM)
E. coli [3]; [15]
  MIC: 8 to 32 µg/mL (≈ 10.6 to 42.2 µM)
E. coli [3]; [16]
  MIC: 8 to 32 µg/mL (≈ 10.6 to 42.2 µM)
Staph. aureus Smith [4]; Table 8
  MIC: 8 µg/mL (≈ 10.6 µM)
Staph.; [22]
  MIC: 2 to 4 µg/mL (≈ 2.64 to 5.28 µM)
Staph.; [23]
  MIC: 4 to 16 µg/mL (≈ 5.28 to 21.1 µM)
Staph.; [17]
  MIC: 2 to 4 µg/mL (≈ 2.64 to 5.28 µM)
Staph.; [18]
  MIC: 4 to 16 µg/mL (≈ 5.28 to 21.1 µM)

## CCCCCCC(=O)OCOC(=O)N(CCC)CC(=O)Nc1cc(N(C)C)c2c(c1O)C(=O)C1=C(O)[C@]3(O)C(=O)C(C(N)=O)=C(O)[C@@H](N(C)C)[C@@H]3C[C@@H]1C2 [Example 19, ({[(2-{[(5aR,6aS,7S,10aS)-9-(aminocarbonyl)-4,7-bis(dimethylamino)-1,8,10a,11-tetrahydroxy-10,12-dioxo-5,5a,6,6a,7,10,10a,12-octahydrotetracen-2-yl]amino}-2-oxoethyl)(propyl)amino]carbonyl}oxy)methyl heptanoate]
Staph. aureus Smith [1]; [7]
  ED50: 0.31 mg/kg
Staph. aureus Smith [1]; [8]
  ED50: 8.05 mg/kg
Staph. aureus Smith [1]; [9]
  ED50: 8.05 mg/kg
Staph. aureus Smith [1]; [10]
  ED50: 0.31 mg/kg
E. coli #311; [11]
  ED50: > 2 mg/kg
E. coli #311; [12]
  ED50: > 32 mg/kg
E. coli [3]; [13]
  MIC: 0.5 to 2 µg/mL (≈ 0.66 to 2.64 µM)
E. coli [3]; [14]
  MIC: 8 to 32 µg/mL (≈ 10.6 to 42.2 µM)
E. coli [3]; [24]
  MIC: 0.5 to 2 µg/mL (≈ 0.66 to 2.64 µM)
Staph. aureus Smith [4]; Table 8
  MIC: 1 µg/mL (≈ 1.32 µM)
Staph.; [17]
  MIC: 0.5 to 4 µg/mL (≈ 0.66 to 5.28 µM)
Staph.; [18]
  MIC: 1 to 8 µg/mL (≈ 1.32 to 10.6 µM)
Staph.; [25]
  MIC: 0.5 to 4 µg/mL (≈ 0.66 to 5.28 µM)
Staph.; [26]
  MIC: 1 to 8 µg/mL (≈ 1.32 to 10.6 µM)
Staph.; [19]
  MIC: 0.12 to 1 µg/mL (≈ 0.158 to 1.32 µM)
Staph.; [20]
  MIC: 0.25 to 4 µg/mL (≈ 0.33 to 5.28 µM)

## CCCN(CC(=O)Nc1cc(N(C)C)c2c(c1O)C(=O)C1=C(O)[C@]3(O)C(=O)C(C(N)=O)=C(O)[C@@H](N(C)C)[C@@H]3C[C@@H]1C2)C(=O)OCOC(=O)CC1CCCC1 [Example 40, ({[(2-{[(5aR,6aS,7S,10aS)-9-(aminocarbonyl)-4,7-bis(dimethylamino)-1,8,10a,11-tetrahydroxy-10,12-dioxo-5,5a,6,6a,7,10,10a,12-octahydrotetracen-2-yl]amino}-2-oxoethyl)(propyl)amino]carbonyl}oxy)methyl cyclopentylacetate]
Staph. aureus Smith [1]; [7]
  ED50: 0.39 mg/kg
Staph. aureus Smith [1]; [8]
  ED50: 4.65 mg/kg
Staph. aureus Smith [1]; [9]
  ED50: 4.65 mg/kg
Staph. aureus Smith [1]; [10]
  ED50: 0.39 mg/kg
E. coli [3]; [13]
  MIC: 1 to 2 µg/mL (≈ 1.32 to 2.65 µM)
E. coli [3]; [24]
  MIC: 1 to 2 µg/mL (≈ 1.32 to 2.65 µM)
Staph. aureus Smith [4]; Table 8
  MIC: 0.5 µg/mL (≈ 0.662 µM)
Staph.; [17]
  MIC: 0.25 to 2 µg/mL (≈ 0.331 to 2.65 µM)
Staph.; [18]
  MIC: 0.25 to 2 µg/mL (≈ 0.331 to 2.65 µM)
Staph.; [25]
  MIC: 0.25 to 2 µg/mL (≈ 0.331 to 2.65 µM)
Staph.; [26]
  MIC: 0.25 to 2 µg/mL (≈ 0.331 to 2.65 µM)
